Measurements published in US20130263298A1, “MODELS FOR DIAGNOSIS, PREVENTION AND TREATMENT OF ALZHEIMER'S DISEASE” (INDIGO CAPITAL GROUP LLC, priority 2012, published 2013).

Columns and labels:
Drosophila melanogaster = test: Phase-I lifespan of yellow-white Drosophila fed dietary supplements; assay type: in vivo; details: male yellow-white Drosophila, supplement at optimal RDA in diet; for increase in mean survival / longevity: vs. control (36 days)
Protocol: For the phase-I of the study, approximately 1200 male yellow-white Drosophila were bred, isolated and monitored on a daily basis. About 100 fruit flies were tested for each supplement, divided into four vials containing 25 flies each.
In an embodiment of the present invention, a mathematical formula was developed by the inventor for an optimal dosage: Recommended daily human dosage of each supplement per day, divided by 1,000,000 (average weight of a person 50 kg, average weight of 100 flies […]), multiplied by 2 as tubes are used initially for two days, multiplied by 100 as it is assumed only 1% of the food is consumed, multiplied by 4 as bulk food was made for 1 week/8 days. According to the formula, if 100 mg is the recommended human daily dosage of a supplement, the fly dose is 0.08 mg. This was considered optimal required daily allowance (RDA). The supplements were measured on the milligram gemological weighing machine and combined with the regular Drosophila diet (Carolina 424 media, yeast, water) in a temperature controlled insect culture incubator under optimal conditions. 50% survival was calculated by counting the flies that died and transferring the live flies into a different vial with newly made media every two days and near the end, every day. The observations were recorded, calculated, graphed and analysed. Two tailed t-tests were performed to test for statistical significance.

GCLc enzyme = test: Western Blot test for GCLc enzyme levels in supplement-fed flies; assay type: in vivo, Drosophila melanogaster; details: optimal dose (3x), 15 days feeding, compared to the control
Protocol: For the phase-III of the experiment, a new set of Drosophila melanogaster were bred for Western blot and Glutathione assays. […] Single, triple, and six times strength for each of the three supplements were added to 25 flies each in vials along with control for 15 days. The flies were then transferred to perform the Western Blot test to check for GCLc enzyme levels for each group. […] Details of the procedure for Western Blot are mentioned below. A western blot is a method that allows investigators to detect a specific protein in a given sample of tissue. The flies were frozen with dry ice, then standardized, lysis buffer added, homogenized and then centrifuged. The proteins were separated by their molecular weight ([…]) by SDS-PAGE, polyacrylamide gel electrophoresis. An 8% acryl amide gel was used. Smaller proteins migrate faster. Samples were loaded into the wells and a voltage of 150 Volts was applied. The proteins were transferred to a PVDF sheet of special blotting paper. The uniformity was checked by the Coomassie stain. […] A digital image of the western blot was captured using fluorescence and analysed.

Glutathione = test: Fluorometric Glutathione Assay (monochlorobimane) in supplement-fed flies; assay type: in vivo, Drosophila melanogaster; details: optimal dose (3x), 15 days feeding, compared to the control
Protocol: For the phase-III of the experiment, a new set of Drosophila melanogaster were bred for Western blot and Glutathione assays. […] Single, triple, and six times strength for each of the three supplements were added to 25 flies each in vials along with control for 15 days. The flies were then transferred to perform the Western Blot test to check for GCLc enzyme levels for each group. […] Glutathione Detection Kit from BioVision's ApoGSH was used for an in vitro assay for detection of total glutathione changes in tissue samples. The assay used monochlorobimane (MCB), a dye that appears to form an adduct exclusively with glutathione. […] The reaction was catalysed by glutathione S-transferase. Thus, the amount of total glutathione was detected using a fluorimeter. In an embodiments of the present invention, the kit contents included Cell Lysis Buffer—25 ml, Monochlorobimane (25 mM)—200 μl, GST Reagent (50 U/ml)-200 μl, and GSH Standard (1 mg; MW: 307)—1 Vial. Monochlorobimane was dissolved in DMSO and warmed at a temperature above 18° C. for use. After opening the kit, MCB, GST, and GSH were stored at −20° C. and Cell Lysis Buffer was stored at 4° C. The GSH standard was reconstituted with 100 μl dH2O to generate 10 μg/μl standard stock solution. […] Reading: […] The sample readings were applied to the standard curve to calculate total glutathione amount in each sample. […]

Structure (SMILES) | increase in mean survival / longevity (Drosophila melanogaster) | increase in GCLc enzyme (GCLc enzyme) | increase in glutathione (Glutathione) | mean survival (Drosophila melanogaster; control 36 days)
COC1=C(OC)C(=O)C(C/C=C(\C)CC/C=C(\C)CC/C=C(\C)CC/C=C(\C)CC/C=C(\C)CC/C=C(\C)CC/C=C(\C)CC/C=C(\C)CC/C=C(\C)CCC=C(C)C)=C(C)C1=O [Coenzyme Q10] | 11% | – | – | –
N[C@@H](CCC(=O)N[C@@H](CS)C(=O)NCC(=O)O)C(=O)O [Glutathione] | 11% | 7% | 154% | –
CC(=O)N[C@@H](CS)C(=O)O [NAC, N acetyl cysteine] | 28% | – | – | –
Oc1ccc(C=Cc2cc(O)cc(O)c2)cc1 [Resveratrol] | 39% | 1% | 100% | 50 days
